Measured values: US20250319067A1, “Improved Pharmacokinetics of Tryptamine Prodrugs” (Reunion Neuroscience, Inc., priority 2023, published 2025)

What was measured:
[1] = Rat plasma PK after IV, PO, SC RE104 or 4-OH-DiPT (Example 3); details: 2 mg/kg RE104 IV, vs AUC0-- of equimolar IV 4-OH-DiPT
Experimental: The concentration of test compounds was determined in plasma by LC-MS/MS. […] Pharmacokinetic parameters for each analyte and route of administration were estimated from the plasma concentration-versus-time curves for each animal. Head-twitch response (HTR), also referred to as wet dog shakes, was assessed by observing rats for automatisms consisting of rapid and alternating head rotations (González-Maeso et al. and Halberstadt et al.); HTRs were manually counted using 10-minute intervals up to 2 hours after dosing and again at 3, 3.5, and 4 hours after dosing.
Pharmacokinetic parameters were calculated using Phoenix WinNonlin, version 6.3 or 8.2 (Certara, Princeton, NJ, USA).
For rat PK assessments, approximately 0.25 mL blood was serially collected at 8 time points over 6 hours (5, 15, 30, and 45 minutes, and 1, 2, 4, and 6 hours after dosing) via a surgically placed carotid artery catheter and immediately transferred to tubes containing K2EDTA on ice. For dog PK assessments, approximately 0.5 mL of blood was collected via superficial vein before dose and at 5 (for IV and SC injections only), 15, and 30 minutes and 1, 2, 4, 8, 16, 24, 48, and 72 hours post dose into tubes containing K2EDTA with 10 mM Dichlorvos as the anticoagulant and stabilizer, respectively. […]

[2] = target: human recombinant 5-HT2A receptors (Homo sapiens, UniProt P28223); assay: 5-HT2A cellular agonist effect assay (IP1, HTRF); type: cell-based; design: host or cells: HEK-293
Experimental: Activation was calculated as a percentage of the response to the positive control (10 μM 5-HT).
EC50 and IC50 values were determined by nonlinear regression analysis of the concentration-response curves generated with mean replicate values using Hill equation curve fitting. For all receptor pharmacology assays, data were analyzed with software developed at Cerep (Hill software, Celle-Lévescault, France) and validated by comparison with data generated by the commercial software SigmaPlot® 4.0 for Windows®(01997 by SPSS Inc).

dog hepatocytes = assay: Hepatocyte intrinsic clearance, dog; type: in vitro ADME
Text: (§1) In human, rat, rabbit, dog and monkey hepatocytes, the metabolite profile of RE104 was qualitatively similar across these species with only minor differences.

rabbit hepatocytes = assay: Hepatocyte intrinsic clearance, rabbit; type: in vitro ADME
Text: as §1

dogs = assay: GLP 14-day extended single SC dose toxicity study in dogs
[3] = as above; details: beagle, dog, sc
monkey hepatocytes = assay: Hepatocyte intrinsic clearance, monkey; type: in vitro ADME
Text: as §1

[4] = Metabolite profiling in monkey plasma after SC RE104; type: in vivo, cynomolgus monkey; details: pooled plasma 0 to 12 hours post dose, SC 0.5 mg/kg RE104
Text: Blood samples were centrifuged to obtain plasma.

[5] = Prodrug cleavage in dog plasma; type: in vitro ADME; details: after 4 hours of incubation
Experimental: (§2) Mean values from 3 replicate assays are reported. See the Supplemental Methods for additional details.
(§3) Triplicate aliquots (50 μL) of each spiked plasma solution were immediately added to 200 μL of ice-cold methanol/acetonitrile solution (50:50 v/v) containing the internal standards to generate time zero samples. Spiked plasma solutions were incubated at 37° C. in an orbital shaker set to 75 rpm, and 50-μL samples were taken in triplicate after 30 minutes and 1, 2, and 4 hours of incubation. Each sample was immediately added to 200 μL ofice-cold methanol/acetonitrile solution containing the internal standard(s) to terminate the reaction. Samples were mixed by vortex and then stored at −80° C. until analysis.
(§4) Calibration standards were prepared in plasma for each species and analyzed in batches by LC-MS/MS. Sample batches consisted of 3 replicates of a system suitability standard (containing the analyte and internal standard), the appropriate calibration standards in ascending order including a blank sample without internal standard, a zero sample (with internal standard), and at least 6 nonzero standards and the assay samples, followed by the 3 replicates of the system suitability sample.

[6] = GLP 14-day extended single SC dose toxicity study in rats; details: rat; for NOAEL at 14 days: in vivo
Experimental: (§5) In a GLP 14-day extended single SC dose toxicity study in rats, doses of 0 (PBS), 10, 25 and 75 mg/kg were evaluated. Animals were necropsied on Study Day 2 and Day 14 (also referred to as Recovery Day 13) post-dosing.
(§6) A non-GLP dose range study was performed in the dog in order to determine an MTD. Single SC doses of 7.5, 15 and 20 mg/kg were evaluated.

rats = assay: as above
Experimental: as §5, §6

human hepatocytes = assay: Hepatocyte intrinsic clearance, human; type: in vitro ADME
Text: as §1

[7] = tested on: cytochrome P450 (CYP) enzymes, FMO and MAO enzymes; assay: Recombinant human enzymes (Supersomes) substrate assay; type: in vitro ADME
[8] = Non-GLP single dose, dose range study in rats (MTD); details: rat, in vivo, sc
Experimental: Non-GLP single dose, dose range studies with RE104 HCl were performed in rats and dogs to explore toxicity and establish a maximum tolerated dose (MTD) by SC injection. The rat study explored dosing with two formulations, water for injection (WFI) at pH 3-4 and phosphate buffered saline (PBS) with a final formulation pH of 4.5-5. Single doses of 20 to 300 mg/kg formulated in WFI produced dose-dependent pharmacologically related systemic serotonergic clinical signs. Similarly, SC administration with doses of 25 to 225 mg/kg RE104 formulated in PBS caused clinical signs of SS around 1 hour with recovery by 24 hours.
Clinical signs were reversible by Recovery Day 13 (Study Day 14). Microscopic injection site pathology was seen following a single dose of 225 mg/kg. The MTD in the rat for RE104 in WFI was 150 mg/kg and in PBS was 75 mg/kg.

[9] = Prodrug cleavage in human plasma; type: in vitro ADME; details: human plasma, 37° C.
Experimental: as §2, §3, §4

[10] = expressed as zwitterion, 60 kg human, BSA conversion

Sequence of human recombinant 5-HT2A receptors (P28223 whole entry): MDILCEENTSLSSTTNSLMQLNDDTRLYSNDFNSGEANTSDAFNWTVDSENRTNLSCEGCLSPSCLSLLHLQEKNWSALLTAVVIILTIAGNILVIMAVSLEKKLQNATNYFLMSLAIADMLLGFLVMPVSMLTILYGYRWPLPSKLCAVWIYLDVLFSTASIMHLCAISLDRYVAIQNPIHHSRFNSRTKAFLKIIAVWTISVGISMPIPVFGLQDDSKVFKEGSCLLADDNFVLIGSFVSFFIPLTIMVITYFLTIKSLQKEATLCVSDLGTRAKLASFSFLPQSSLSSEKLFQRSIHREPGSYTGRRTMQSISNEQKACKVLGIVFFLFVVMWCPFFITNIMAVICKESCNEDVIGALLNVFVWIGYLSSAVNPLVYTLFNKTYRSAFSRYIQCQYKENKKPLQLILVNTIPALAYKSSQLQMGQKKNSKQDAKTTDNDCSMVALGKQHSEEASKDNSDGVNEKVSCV

## CC(C)N(CCc1c[nH]c2cccc(OC(=O)CCCC(=O)O)c12)C(C)C [RE104]
[1]
  fm (fraction metabolized): 96.7%
[2]
  EC50: > 30 µM
Dog hepatocytes
  in vitro intrinsic clearance (CLint): 0.87 mL/hr/106 cells
Rabbit hepatocytes
  in vitro intrinsic clearance (CLint): 4.88 mL/hr/106 cells
dogs; dog
  1/10 of HED: 0.44 mg/kg
  1/10 of Human BSA dose: 25.9 mg
  Human BSA dose: 160 mg/m^2
dogs; dog HED vs 5 mg (zwitterion)
  safety margin relative to proposed starting dose: approximately 53 fold
dogs; dog HED vs 48 mg (zwitterion)
  safety margin relative to proposed maximum dose: ~5 fold
dogs; dog NOAEL, BSA conversion factors
  HED: 4.4 mg/kg
dogs; dog, based on a BSA of 1.62 m^2
  Human BSA dose: 259 mg
dogs; [10]
  HED of 8 mg/kg in the dog: approximately 267 mg
[3]; plasma, 8 mg/kg
  AUC(0-t): 4540 ng·h/mL
  Cmax: 3300 ng/mL
[3]; both, in vivo
  NOAEL at 14 days: 8 mg/kg
Monkey hepatocytes
  in vitro intrinsic clearance (CLint): 1.14 mL/hr/106 cells
[4]
  share of the total peak area: 71.1%
[5]
  prodrug remaining: 39%
[6]; Sprague Dawley, sc
  NOAEL at 14 days: 10 mg/kg
[6]; Sprague Dawley, plasma, sc, 10 mg/kg
  Cmax: 0.751 ng/mL
[6]; both, Sprague Dawley, sc
  NOAEL at 14 days: 10 mg/kg
[6]; female, subcutaneous
  NOAEL at 14 days: 10 mg/kg
rats; [10]
  human equivalent dose [HED] of the 10 mg/kg rat dose: approximately 97 mg
rats; male rats
  low adverse effect level (LOAEL): 10 mg/kg
rats; rat
  1/10 of HED: 0.16 mg/kg
  1/10 of Human BSA dose: 9.7 mg
  Human BSA dose: 60 mg/m^2
rats; rat HED vs 5 mg (zwitterion)
  fold HED higher than proposed starting dose: approximately 19 fold
rats; rat HED vs 48 mg (zwitterion)
  fold HED higher than maximum proposed dose: ~2 fold
rats; rat NOAEL, BSA conversion factors
  HED: 1.6 mg/kg
rats; rat, based on a BSA of 1.62 m^2
  Human BSA dose: 97.2 mg
Human hepatocytes
  in vitro intrinsic clearance (CLint): 3.45 mL/hr/106 cells
[7]
  substrate for cytochrome P450, FMO or MAO isoforms: not a substrate
[8]; formulated in PBS
  MTD at 14 days: 75 mg/kg
[8]; formulated in WFI
  MTD at 14 days: 150 mg/kg
[9]
  completeness of conversion: > 95%
  time of conversion to 4-OH-DiPT: < 30 min
